Assay results: patent publication US7951374B2, “Methods for inhibiting STAT3 signaling in immune cells” (University of South Florida, priority 2004, dated 2011)

Columns and labels:
[1] = test system: MB49 tumor cells; assay: CPA-7-induced tumor-cell apoptosis in vitro by annexin V staining; type: cell-based, mouse; conditions: annexin V staining (FIG. 31)
Protocol: Cell lines. Mouse B16 melanoma, YAC-1 and P815 target cells were purchased from American Type Culture Collection. MB49 bladder carcinoma and C4 mouse melanoma lines were gifts from T. Ratliff (University of Iowa) and J. Fidler (M.D. Anderson Cancer Center), respectively.
Flow cytometry. Single-cell suspensions were prepared by mechanic dispersion of spleen or tumor tissues. 1×10^6 freshly prepared cells suspended in a mixture of PBS, 2% FCS and 0.1% (wt/vol) sodium azide were preincubated with FcγIII/IIR-specific antibody to block nonspecific binding and cells were stained with different combinations of fluorochrome-coupled antibodies to CD11c, I-A^b (MHC class II), CD86, CD11b, Gr1, CD49b, CD3, CD25 or Lag-3, or with annexin V (BD Biosciences). Fluorescence data was collected on FACSCalibur (Beckton Dickinson) and analyzed using FlowJo software (Tree Star).
The effects of blocking Stat3 in immune cells with CPA-7, a small-molecule Stat3 inhibitor, were assessed. For these experiments, both B16 and MB49 tumor cells were used. In contrast to B16, MB49 tumor cells are insensitive to CPA-7-induced tumor-cell apoptosis, as determined by annexin V staining.

[2] = target: T1, Stat3 (Mus musculus, UniProt P42227); assay: EMSA of Stat DNA binding in DC2.4 dendritic cells preincubated with CPA-7 (Stat3); type: cell-based; conditions: DC2.4 cells, 10 μm CPA-7 overnight, then 20 ng/ml IL-6 for 20 minutes, EMSA (FIG. 32)
T1 construct: endogenous in cells; host or cells: mouse DC2.4 dendritic cells
Protocol: Mouse DC2.4 dendritic cells were preincubated with 10 μm CPA-7 overnight and then stimulated for 20 minutes with 20 ng/ml IL-6 (activator of both Stat3 and Stat1), 500 U/ml IFN-γ (activator of […]) or 20 ng/ml GM-CSF (activator of Stat5). After cell lysis, nuclear extracts were prepared and EMSA was conducted to detect DNA binding.

[3] = target: T2, Phospho-Stat3 (Stat3P) (Mus musculus, UniProt P42227); assay: Phospho-Stat3 levels in MB49 tumor-infiltrating DCs after intravenous CPA-7, intracellular flow cytometry; type: in vivo; conditions: 24 hours after intravenous injection, compared to vehicle-treated mice (FIG. 33)
T2 construct: from tissue; host or cells: tumor-infiltrating dendritic cells from MB49 tumors of mice
Protocol: (§1) Isolation of tumor-infiltrating immune cell subsets and intracellular staining of signaling molecules. Freshly excised tumor tissues were gently minced into small pieces and incubated in 400 U/ml of collagenase D (Roche) solution for 30 minutes at 37° C. Cell suspensions were filtered through a mesh filter for isolation of various immune cell subsets using specific antibodies in combination with EASYSEP magnetic nanoparticles (StemCell Technologies, Canada). Isolated tumor-infiltrating cells were fixed in paraformaldehyde and permeated in methanol before intracellular staining with antibodies to phosphotyrosine-Stat3 and Stat1 (BD Biosciences) or with Foxp3-specific antibody (eBiosciences). Fluorescence data was collected on FACSCalibur (Beckton Dickinson) and analyzed using FlowJo software (Tree Star).
(§2) To further characterize activation of CPA-7 treated immune cells, Phospho-Stat3 (Stat3P) levels in tumor-infiltrating DCs were assessed 24 hours after intravenous injection with vehicle or CPA-7 and compared to splenic CD11c^+ cells from tumor-free Stat3^+/+ mice. […] Also shown in FIG. 33, CPA-7 treated tumor-infiltrating DCs have increased phosphorylated Stat1.

[4] = test system: phosphorylated Stat1; assay: Stat1P levels in tumor-infiltrating DCs after intravenous CPA-7, intracellular flow cytometry; type: in vivo, mouse; conditions: 24 hours after intravenous injection (FIG. 33)
Protocol: as §1, §2

[5] = test system: MB49 tumors; assay: Growth of established MB49 tumors in mice treated with CPA-7; type: in vivo, mouse
Protocol: For CPA-7 treatment, MB49 tumors were implanted into male C57BL/6 mice and tumors were allowed to grow until 5-7 mm in diameter. Mice were given intravenous injections of either vehicle (10% DMSO/PBS) or 5 mg/kg CPA-7 once every 3 days.
Mice with MB49 tumors (about 6 mm in diameter) received intravenous injections of either vehicle or CPA-7.
Mice with established MB49 tumors were treated with vehicle or CPA-7 in combination with control or asialo GM1-specific antibody.

[6] = test system: YAC-1 cells; assay: 51Cr-release assay of NK cell cytotoxicity from tumor-bearing mice treated with CPA-7; type: in vivo, mouse; conditions: NK cells from tumor-bearing mice treated with CPA-7, YAC-1 targets (FIG. 35)
Protocol: Cytotoxicity assays. NK cell and neutrophil cytotoxicity assays were performed as described by Wei, S. et al., J. Exp. Med. 187, 1753-1765 (1998), which is incorporated herein by reference. Briefly, a 4-hour ^51Cr-release assay was carried out using YAC-1 cells as targets for enriched NK cells or FcγR^+ mouse mastocytoma (P815) cells as targets for enriched neutrophils. Cytotoxicity of CPA-7-treated NK cells from tumor-bearing hosts was assessed using a standard ^51Cr-release assay with YAC-1 cells as targets, as described in Example 1.

[7] = test system: MB49, B16 or C4 tumor cells; assay: Lung tumor nodules after intravenous tumor cell injection and CPA-7 treatment; type: in vivo, mouse; conditions: 5×10^4 MB49, B16 or C4 cells i.v., CPA-7 5 mg/kg twice weekly, day 21 (FIG. 38)
Protocol: Mice were injected intravenously with 5×10^4 MB49, B16 or C4 tumor cells, followed by twice weekly treatment with CPA-7 (5 mg/kg) or vehicle (10% DMSO). Lung colonies were enumerated 21 days later, when control mice became moribund.
To visualize lung tumor nodules, lungs were fixed and bleached in Fekete's solution with or without India ink as a counterstain.

[8] = Immunohistochemical analysis of colon sections for autoimmune pathology; type: in vivo, mouse; conditions: tumor-bearing Stat3+/+ and Stat3−/− mice, CPA-7 every third day for three weeks (FIG. 30)
Protocol: Transverse colon sections were stained with hematoxylin-eosin and antibodies to CD4, CD8 or CD11b. Staining with rat IgG was used as a negative control.
Colons from tumor free Stat3^−/− mice were evaluated for autoimmune effects at 20 weeks after Stat3 deletion by immunohistochemical analysis. […] In contrast, there was virtually no evidence of systemic autoimmunity at 4 weeks after induced depletion in tumor-bearing Stat3^+/+ and Stat3^−/− mice (FIG. 29).

T2 sequence (P42227 whole entry): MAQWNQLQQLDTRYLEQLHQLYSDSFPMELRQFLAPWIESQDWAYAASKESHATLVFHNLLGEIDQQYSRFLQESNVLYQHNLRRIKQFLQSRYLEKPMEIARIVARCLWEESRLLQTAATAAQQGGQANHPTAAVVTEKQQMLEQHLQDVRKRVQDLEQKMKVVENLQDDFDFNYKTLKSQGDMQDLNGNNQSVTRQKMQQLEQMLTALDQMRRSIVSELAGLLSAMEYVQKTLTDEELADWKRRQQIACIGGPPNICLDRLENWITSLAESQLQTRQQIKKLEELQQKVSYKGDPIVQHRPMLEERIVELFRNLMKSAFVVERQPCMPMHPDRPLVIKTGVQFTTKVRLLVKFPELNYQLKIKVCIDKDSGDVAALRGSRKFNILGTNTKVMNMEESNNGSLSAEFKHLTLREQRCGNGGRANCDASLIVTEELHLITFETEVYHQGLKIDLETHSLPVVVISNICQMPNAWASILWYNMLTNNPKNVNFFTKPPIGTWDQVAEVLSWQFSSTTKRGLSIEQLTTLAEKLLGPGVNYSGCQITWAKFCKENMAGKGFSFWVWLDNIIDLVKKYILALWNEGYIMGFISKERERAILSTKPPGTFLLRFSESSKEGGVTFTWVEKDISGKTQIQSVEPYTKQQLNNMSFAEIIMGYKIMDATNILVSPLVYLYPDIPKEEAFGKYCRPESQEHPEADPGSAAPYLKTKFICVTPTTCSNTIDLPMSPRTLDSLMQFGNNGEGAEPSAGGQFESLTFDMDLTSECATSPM
T1 sequence (P42227 whole entry): as above

Compound: [NH2][Pt]([NH2])([Cl])([Cl])([Cl])[N+](=O)[O-] [CPA-7]
- sensitivity to CPA-7-induced tumor-cell apoptosis [1]: insensitive
- inhibition of Stat3 DNA binding [2]: inhibits Stat3
- phosphorylated Stat3 in tumor-infiltrating DCs [3]: considerably reduced
- phosphorylated Stat1 in tumor-infiltrating DCs [4]: increased
- growth of established tumors ([5]; MB49 tumors about 6 mm in diameter, intravenous CPA-7 5 mg/kg once every 3 days (FIG. 34)): inhibits the growth of established tumors
- CPA-7-induced tumor growth inhibition in the absence of CD4+ and CD8+ T cells ([5]; MB49 tumors, antibodies to CD4 and CD8 (FIG. 34)): abrogated
- in vivo antitumor effects of CPA-7 treatment with NK depletion ([5]; established MB49 tumors, asialo GM1-specific antibody (FIG. 36)): partially abrogates
- NK cell activity (cytotoxicity) [6]: increased
- lung tumor nodules [7]: significantly reduced or completely abrogated
- pathologic changes in colons [8]: lack of pathologic changes
